The values that follow are results of earlier work, collected in US10052341B2, “Method for preparing an anthelmintic composition, anthelmintic composition, veterinary treatment method and anthelmintic treatment method” (OURO FINO SAUDE ANIMAL PARTICIPACOES SA, priority 2013, dated 2018).

The conditions of the series: pH 5.

Molecules are shown by their SMILES.

Consider `CCC[S+]([O-])c1ccc2[nH]c(NC(=O)OC)nc2c1` (centres unmarked) [albendazole sulfoxide], for which the Water-solubility is 67 µg/mL.
With `CCCSc1ccc2nc(NC(=O)OC)[nH]c2c1` [albendazole], the Water-solubility was 0.53 µg/mL.
